This note sets out measurements from patent publication US20170340698A1, “CYCLIC PEPTIDE SPECIFICALLY BINDING TO APOPTOTIC CELLS AND USE THEREOF” (KYUNGPOOK NATIONAL UNIVERSITY INDUSTRY-ACADEMIC COOPERATION …, priority 2014, published 2017).

SMILES strings stand for the structures. Residues, ends and D or L forms follow the SMILES beside them.

A short description of series [1]: Stability of peptides in the serum (C18 reverse phase FPLC, MS). The format is in vitro ADME, mice. Conditions: mouse serum. An excerpt: Peptide stability in the serum was examined by the same method referring to the following documents Yoo S A, Bae D G, Ryoo J W, Kim H R, Park G S, et al. (2005) Arginine-rich antivascular endothelial growth factor (anti-VEGF) hexapeptide inhibits collageninduced arthritis and VEGF-stimulated productions of TNF-alpha and IL-6 by human monocytes. J Immunol 174: 5846-5855. Blood from mice was collected, and then serum was collected by centrifugation at 4[…], followed by filtration through 0.22 um-pore filter. […] The flow rate was 0.3 ml/min, and analyzed by C18 reverse phase FPLC using a linear gradient of 20% from 0 to 100% using acetonitrile through a linear graduation of 20% (Vydac protein and peptide C18, 0.1% trifluoroacetate in water for equilibration, and 0.1% trifluoroacetate in acetonitrile for elution) (Life Technologies, Carlsbad, Calif.). […]
It was examined whether higher levels of imaging signals by the cyclic form of ApoPep-1 compared with those of the linear form of ApoPep-1 was due to the difference in serum stability of peptides. After incubation of the linear or cyclic form of ApoPep-1 with mouse serum up to 24 hours, the amount of the peptide remaining in the serum was analyzed. […]

In series [2] the test system is SNU-16 stomach tumor xenografts. Put plainly: Anti-tumor treatment of mice: tumor volume, tumor weight, TUNEL staining. The format is in vivo. The settings on record: cisplatin 5 mg/kg i.p. once per week, cetuximab 1.5 mg/kg i.p. twice per week, two weeks; measured over three weeks.
Protocol: Eight-week old female athymic (nu/nu) Balb/c mice were purchased from Orient laboratories (Seongnam, Korea) and were housed under specific-pathogen-free (SPF) conditions with laboratory chow and water ad libitum. Stomach tumor xenografts were established by subcutaneously injecting 1×10^7 SNU-16 cells in 100 ml saline into the right flank. Tumors were allowed to reach 50-60 mm^3 of volume before randomization and initiation of treatment. […] In the present experiment, a total of two rounds of anticancer drug treatment were conducted for two weeks. Changes in tumor size were measured using an automatic caliper over three weeks. Tumor volumes were calculated using the formula: volume=(length×width×height)/2. Tumor weights were measured after isolation of tumor mass.
To examine anti-tumor growth effect by cisplatin or cetuximab alone and in combination, tumor volumes and weights after the drug treatment were measured.

With `N=C(N)NCCC[C@H](NC(=O)[C@@H]1CCCN1C(=O)[C@@H]1CCCN1C(=O)[C@H](CCCNC(=N)N)NC(=O)[C@H](CCC(N)=O)NC(=O)[C@@H](N)CS)C(=O)O` [linear form of ApoPep-1, CQRPPR, reference compound] (H-CQRPPR-OH; N-terminus and C-terminus assumed), the “amount of peptide remaining in the serum (peak area)” value in series [1] (37 degrees, up to 24 hours) is “not significantly changed”. The “presence of peptide in serum by MS after incubation” value in series [1] (incubation for 24 hours, MS of FPLC peak) is reported as “stably present”.
`N.N.[Cl][Pt][Cl]` [cisplatin]: the “tumor volume compared with control group treated without drug” value in series [2] is recorded as “reduced tumor volumes”.
